The source of these data is patent US6413959B1, “Method of treating depression with arylglycinamide derivatives” (Boehringer Ingelheim KG, priority 1995, dated 2002).

Data set [1] concerns the target T1, NK1-receptor (substance P-receptor) (Homo sapiens, UniProt P25103).
T1 construct: expressed in transfected cells; host or cells: IM-9 human lymphoblastoma cells
Briefly: NK1-receptor affinity, displacement of 125I-labelled substance P on IM-9 cells. The format is binding. To be noted: human lymphoblastoma cells (IM-9) with cloned NK1-receptors.

In a further data set the target is T2, NK1 (Cavia porcellus, UniProt P30547).
T2 construct: Guinea pigs weighing 300-500 grams were anaesthetised with pentobarbital; from tissue; host or cells: whole anaesthetised guinea pig (in vivo)
T2 sequence (P30547 whole entry): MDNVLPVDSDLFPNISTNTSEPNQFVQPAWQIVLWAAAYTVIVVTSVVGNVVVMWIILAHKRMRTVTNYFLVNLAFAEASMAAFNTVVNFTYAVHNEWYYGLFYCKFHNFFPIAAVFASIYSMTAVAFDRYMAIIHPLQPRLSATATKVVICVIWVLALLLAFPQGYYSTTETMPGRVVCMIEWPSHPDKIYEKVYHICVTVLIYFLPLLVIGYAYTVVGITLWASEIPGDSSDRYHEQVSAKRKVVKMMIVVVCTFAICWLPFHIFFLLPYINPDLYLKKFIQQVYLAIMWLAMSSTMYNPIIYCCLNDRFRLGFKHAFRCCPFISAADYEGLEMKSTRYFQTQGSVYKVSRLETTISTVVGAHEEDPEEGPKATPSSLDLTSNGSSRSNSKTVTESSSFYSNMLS
The data set is described as follows: Inhibition of the lowering of blood pressure caused by NK1 in anaesthetised guinea pigs. In kind it is in vivo. Particulars: guinea pig, iv, antagonist given by intraduodenal route, NK1-agonist [βAla4, Sar9, Met(O2)11] SP(4-11) 0.2 μmol/kg i.v., read-out: ID50 (dose which inhibits the lowering of blood pressure caused by the NK1-agonist by 50%).

T1 sequence (P25103 whole entry): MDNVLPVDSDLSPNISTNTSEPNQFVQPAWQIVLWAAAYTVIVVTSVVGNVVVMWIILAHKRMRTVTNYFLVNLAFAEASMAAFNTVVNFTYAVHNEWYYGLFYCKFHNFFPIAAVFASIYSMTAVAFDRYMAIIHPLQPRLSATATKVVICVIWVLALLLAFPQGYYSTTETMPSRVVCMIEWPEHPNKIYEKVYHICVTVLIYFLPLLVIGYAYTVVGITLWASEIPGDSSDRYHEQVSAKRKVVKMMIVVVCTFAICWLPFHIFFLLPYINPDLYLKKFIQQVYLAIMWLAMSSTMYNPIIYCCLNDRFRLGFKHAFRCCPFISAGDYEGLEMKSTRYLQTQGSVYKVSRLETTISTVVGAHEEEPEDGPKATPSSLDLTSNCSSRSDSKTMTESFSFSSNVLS

As usually defined, the Ki is a dissociation constant, usually derived from enzyme kinetics or from competition with a known ligand. A word on the melting point: it is the temperature, or range, at which the solid turns liquid. Turning to `CN(CCc1cc(C(F)(F)F)cc(C(F)(F)F)c1)C(=O)C(c1ccccc1)N1CCN(C2CCCCC2)CC1` (centres unmarked) [Example 5], the melting point is 158 to 164 °C. For the same molecule, in data set [1], the affinity corresponds to a Ki of 1.3 nM. At NK1, the ED50 worked out at 1.4 mg/kg.

`CN(CCc1cc(C(F)(F)F)cc(C(F)(F)F)c1)C(=O)C(c1ccccc1)N1CCC(C#N)(c2ccccc2)CC1.Cl` (centres unmarked) [Example 75] showed a melting point of 91 to 98 °C. Further, affinity in data set [1] was put at a Ki of 180 nM.

As to `CN(CCc1cc(C(F)(F)F)cc(C(F)(F)F)c1)C(=O)C(c1ccccc1)N1CCN(CC2CC2)CC1` (centres unmarked) [Example 66], the melting point is 113 to 117 °C (dec.). Further, in data set [1], affinity was put at a Ki of 1.4 nM.

Take `CN(Cc1cc(C(F)(F)F)cc(C(F)(F)F)c1)C(=O)C(c1ccccc1)N1CCN(C2CCCCC2)CC1` (centres unmarked) [Example 4]: the melting point is > 240 °C (dec.). This molecule came in with a Ki in data set [1] of 1 nM.

In turn, `CN(CCc1cc(C(F)(F)F)cc(C(F)(F)F)c1)C(=O)C(c1ccccc1)N1CCC(N2CCCC2)CC1` (centres unmarked) [Example 52] displayed a melting point of 133 to 143 °C. Besides, in data set [1], the inhibitory constant (Ki) worked out at 1.1 nM.
